# Where two headings read alike, the source gives them in different places.
# Tests used:
# [1] = target: CDK2/CCNE1 (Homo sapiens, UniProt P24941); assay: CDK2 homogeneous time-resolved fluorescence (HTRF) kinase assay; assay type: biochemical
# Method: (§1) A CDK homogeneous time-resolved fluorescence (HTRF) assay was used to assess the potency of the compounds described herein.
# (§2) To an untreated 384-well microtiter plate (ProxiPlate) was added 100 nL 100×test compound in DMSO and 5 μL 2×CDK enzyme in assay buffer (50 mM HEPES, 1 mM EGTA, 10 mM MgCl2, 0.01% Tween 20, 2 mM DTT). The plate was centrifuged at 800 RPM for 1 min then incubated for 20 min at 23 °C. 2.5 μL per well of 4×ATP and 2.5 μL 4×ULight™-eIF4E-binding protein 1 (Thr37/46) Peptide substrate were added to all wells. After addition, the plates were centrifuged at 800 RPM for 1 min. The plates were incubated at 23 °C for 60 min. 5 μL per well 4×EDTA solution were added to each well to stop the reaction. 5 μL 4×LANCE Ultra Europium-anti-phospho-eIF4E-binding protein 1 (Thr37/46) antibody were added to each well and the plate was centrifuged for 1 min at 800 RPM. The plate was incubated for 60 min at 23 °C. Fluorescence was read at 340 nm excitation and 665 nm emission on an En Vision 2105 fluorescence reader. The final concentrations of reagents in the activity assay were 3 nM CDK2/CCNE1, 1 mM ATP, 50 nM ULight™-eIF4E-binding protein 1 (Thr37/46) Peptide substrate, 1% DMSO, 10 mM EDTA, and 2 nM LANCE Ultra Europium-anti-phospho-eIF4E-binding protein 1 (Thr37/46).
# (§3) Dose-response titrations were conducted by using an 11-point, half-logarithmic serial dilution scheme typically starting at 10 μM. Signals were reported as fluorescence units at 665 nm or the ratio of fluorescence units at 665 nm/fluorescence units at 615 nm. Signals are referred to below as “Lance signals”.
# (§4) Using this assay, the IC50 values of example compounds were determined. Table 3 illustrates the IC50 for various Example compounds of Formula IA. Table 4 illustrates the IC50 for various other Example compounds of Formula I. ND=not determined.
# [2] = target: CDK1/CCNB1 (Homo sapiens, UniProt P06493); assay: CDK1 homogeneous time-resolved fluorescence (HTRF) kinase assay; assay type: biochemical
# Method: as §1
# as §2, with “were 0.5” for “were 3”, “nM CDK1/CCNB1,” for “nM CDK2/CCNE1,”
# as §3, §4
# [3] = CDK2/CCNE, 25-250 nM marked x, read-out: CDK2/CCNE IC50 25-250 nM
# [4] = CDK1/CCNB, >250 nM marked x, read-out: CDK1/CCNB IC50 >250 nM
# [5] = CDK2/CCNE, >250 nM marked x, read-out: CDK2/CCNE IC50 >250 nM
# Chain of CDK1/CCNB1 (P06493 whole entry): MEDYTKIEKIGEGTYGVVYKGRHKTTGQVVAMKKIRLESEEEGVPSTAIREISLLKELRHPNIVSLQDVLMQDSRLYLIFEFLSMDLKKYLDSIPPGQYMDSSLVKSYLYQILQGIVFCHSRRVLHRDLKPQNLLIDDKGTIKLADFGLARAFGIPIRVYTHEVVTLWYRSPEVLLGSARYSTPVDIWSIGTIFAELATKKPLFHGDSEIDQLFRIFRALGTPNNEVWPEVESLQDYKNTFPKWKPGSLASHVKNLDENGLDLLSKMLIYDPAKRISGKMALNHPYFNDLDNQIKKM
# Chain of CDK1/CCNB1 (P14635 whole entry partner): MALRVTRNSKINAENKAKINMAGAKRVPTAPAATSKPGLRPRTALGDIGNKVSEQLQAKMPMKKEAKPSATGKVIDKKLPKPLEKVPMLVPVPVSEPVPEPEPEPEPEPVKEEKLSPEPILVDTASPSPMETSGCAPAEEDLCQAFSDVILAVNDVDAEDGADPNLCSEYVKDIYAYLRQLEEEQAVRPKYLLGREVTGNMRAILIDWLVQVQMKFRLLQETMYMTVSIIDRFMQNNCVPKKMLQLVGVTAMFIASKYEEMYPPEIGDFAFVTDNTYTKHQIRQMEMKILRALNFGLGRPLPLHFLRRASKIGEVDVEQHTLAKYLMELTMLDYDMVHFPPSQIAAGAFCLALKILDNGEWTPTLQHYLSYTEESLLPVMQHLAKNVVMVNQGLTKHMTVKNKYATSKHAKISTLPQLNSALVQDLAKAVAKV
Compound,"IC50 [1, 3] [nM]","IC50 [2, 4] [nM]",also measured
"N#CC1CCN(c2nccc3cnc(Nc4cccc(CCO)c4)cc23)CC1 [Ex 143, 1-(7-((3-(2-hydroxyethyl)phenyl)amino)-2,6-naphthyridin-1-yl)piperidine-4-carbonitrile]",25 to 250,> 250,–
"C=CS(=O)(=O)c1ccc(Nc2cc3c(N4CCCC(C#N)C4)nccc3cn2)cc1 (racemic) [Ex 123, 1-(7-((4-(vinylsulfonyl)phenyl)amino)-2,6-naphthyridin-1-yl)piperidine-3-carbonitrile]",25 to 250,> 250,–
"CS(=O)(=O)N1CCC(Nc2cc3c(N(CO)Cc4ccccc4)nccc3cn2)CC1 [Ex 53, (benzyl(7-((1-(methylsulfonyl)piperidin-4-yl)amino)-2,6-naphthyridin-1-yl)amino)methanol]",25 to 250,> 250,–
"C=CS(=O)(=O)N1CCC(Nc2cc3c(N4CCC(F)(F)CC4)nccc3cn2)CC1 [Example 10, 5-(4,4-difluoropiperidin-1-yl)-N-(1-(vinylsulfonyl)piperidin-4-yl)-2,6-naphthyridin-3-amine]",25 to 250,> 250,–
"CS(=O)(=O)N1CCC(Nc2cc3c(C(=O)NC4CC4)nccc3cn2)CC1 [Ex 93, N-cyclopropyl-7-((1-(methylsulfonyl)piperidin-4-yl)amino)-2,6-naphthyridine-1-carboxamide]",–,> 250,"IC50 [1, 5]: > 250 nM"
"CS(=O)(=O)c1ccc(Nc2cc3c(C4=CCCCC4)ccnc3cn2)cc1 [Example 951, 4-(cyclohex-1-en-1-yl)-N-(4-(methylsulfonyl)phenyl)-1,7-naphthyridin-6-amine]",–,–,"IC50 ([1]; 3 nM CDK2/CCNE1, 1 mM ATP, read-out: CDK2/CCNE IC50 >250 nM): > 250 nM; IC50 ([2]; 0.5 nM CDK1/CCNB1, 1 mM ATP, read-out: CDK1/CCNB IC50 >250 nM): > 250 nM"
"C=CS(=O)(=O)c1ccc(Nc2cc3c(N4CC(C#N)C4)nccc3cn2)cc1 [Ex 188, 1-(7-((4-(vinylsulfonyl)phenyl)amino)-2,6-naphthyridin-1-yl)azetidine-3-carbonitrile]",25 to 250,> 250,–
"CC(=O)N1CCC(c2nccc3cnc(Nc4ccc(S(C)(=O)=O)cc4)cc23)CC1 [Ex 154, 1-(4-(7-((4-(methylsulfonyl)phenyl)amino)-2,6-naphthyridin-1-yl)piperidin-1-yl)ethan-1-one]",–,> 250,"IC50 [1, 5]: > 250 nM"
"Cc1c(-c2nccc3cnc(Nc4ccc(S(C)(=O)=O)cc4)cc23)ccc2c1cnn2CCC#N [Ex 194, 3-(4-methyl-5-(7-((4-(methylsulfonyl)phenyl)amino)-2,6-naphthyridin-1-yl)-1H-indazol-1-yl)propanenitrile]",25 to 250,> 250,–
"CC1(C#N)CCN(c2nccc3cnc(NC4CCN(S(C)(=O)=O)CC4)cc23)CC1 [Ex 212, 4-methyl-1-(7-((1-(methylsulfonyl)piperidin-4-yl)amino)-2,6-naphthyridin-1-yl)piperidine-4-carbonitrile]",25 to 250,> 250,–
"CC(C)NC(=O)[C@H]1CC[C@H](c2nccc3cnc(Nc4ccc(S(C)(=O)=O)cc4)cc32)CC1 [Ex 181, (1r,4r)-N-isopropyl-4-(7-((4-(methylsulfonyl)phenyl)amino)-2,6-naphthyridin-1-yl)cyclohexane-1-carboxamide]",–,> 250,"IC50 [1, 5]: > 250 nM"
"CS(=O)(=O)c1ccc(Nc2cc3c(C4CCN(Cc5cccnc5)CC4)nccc3cn2)cc1 [Ex 174, N-(4-(methylsulfonyl)phenyl)-5-(1-(pyridin-3-ylmethyl)piperidin-4-yl)-2,6-naphthyridin-3-amine]",–,> 250,"IC50 [1, 5]: > 250 nM"
"COc1cc(S(=N)(=O)C2COC2)ccc1Nc1cc2c(C#Cc3ccc4c(c3)NC(=O)C43CC3)nccc2cn1 (single isomer, unassigned) [Ex 324, 6'-((7-((2-methoxy-4-(oxetane-3-sulfonimidoyl)phenyl)amino)-2,6-naphthyridin-1-yl)ethynyl)spiro[cyclopropane-1,3'-indolin]-2'-one]",–,–,"IC50 ([2]; CDK1/CCNB, 25-250 nM marked x, read-out: CDK1/CCNB IC50 25-250 nM): 25 to 250 nM"
"N=S(=O)(c1ccc(Nc2cc3c(C#Cc4ccc5c(c4)NC(=O)C54CC4)nccc3cn2)cc1)C1CC1 (single isomer, unassigned) [Ex 307, 6'-((7-((4-(cyclopropanesulfonimidoyl)phenyl)amino)-2,6-naphthyridin-1-yl)ethynyl)spiro[cyclopropane-1,3'-indolin]-2'-one]",–,–,"IC50 ([2]; CDK1/CCNB, <25 nM, read-out: CDK1/CCNB IC50 <25 nM): < 25 nM"
"CCC1(CC)C(=O)Nc2cc(C#Cc3nccc4cnc(Nc5ccc(S(=N)(=O)CC)cc5)cc34)ccc21 (single isomer, unassigned) [Ex 428, 3,3-diethyl-6-((7-((4-(ethylsulfonimidoyl)phenyl)amino)-2,6-naphthyridin-1-yl)ethynyl)indolin-2-one]",–,–,"IC50 ([2]; CDK1/CCNB, x = IC50 >250 nM, read-out: CDK1/CCNB IC50 (>250 nM column)): > 250 nM"

# Continued, in another order:
"IC50 [1, 3] [nM]","IC50 [2, 4] [nM]",Compound,also measured
25 to 250,> 250,"CS(=O)(=O)N1CCC(Nc2cc3c(-c4cnc5[nH]ccc5c4)nccc3cn2)CC1 [Ex 88, N-(1-(methylsulfonyl)piperidin-4-yl)-5-(1H-pyrrolo[2,3-b]pyridin-5-yl)-2,6-naphthyridin-3-amine]",–
–,> 250,"Cc1cc2cnc(NC3CCN(S(C)(=O)=O)CC3)cc2c(N2CCCCC2)n1 [Example 25, 7-methyl-N-(1-(methylsulfonyl)piperidin-4-yl)-5-(piperidin-1-yl)-2,6-naphthyridin-3-amine]","IC50 [1, 5]: > 250 nM"
25 to 250,> 250,"CS(=O)(=O)N1CCC(Nc2cc3c(-c4ccc(CN5CCOCC5)cc4)nccc3cn2)CC1 [Ex 84, N-(1-(methylsulfonyl)piperidin-4-yl)-5-(4-(morpholinomethyl)phenyl)-2,6-naphthyridin-3-amine]",–
25 to 250,> 250,"CS(=O)(=O)N1CCC(Nc2cc3c(N4CCN(CCO)CC4)nccc3cn2)CC1 [Ex 60, 2-(4-(7-((1-(methylsulfonyl)piperidin-4-yl)amino)-2,6-naphthyridin-1-yl)piperazin-1-yl)ethan-1-ol]",–
25 to 250,> 250,"N#CC1CCN(c2nccc3cnc(Nc4ccc(C=O)cc4)cc23)CC1 [Ex 128, 1-(7-((4-formylphenyl)amino)-2,6-naphthyridin-1-yl)piperidine-4-carbonitrile]",–
25 to 250,> 250,"COC(=O)C1CSC(c2nccc3cnc(Nc4ccc(S(C)(=O)=O)cc4)cc23)=N1 (racemic) [Ex 169, methyl 2-(7-((4-(methylsulfonyl)phenyl)amino)-2,6-naphthyridin-1-yl)-4,5-dihydrothiazole-4-carboxylate]",–
25 to 250,> 250,"C=CS(=O)(=O)c1ccc(Nc2cc3c(-c4ccc5[nH]ncc5c4)nccc3cn2)cc1 [Ex 205, 5-(1H-indazol-5-yl)-N-(4-(vinylsulfonyl)phenyl)-2,6-naphthyridin-3-amine]",–
–,> 250,"CS(=O)(=O)c1ccc(Nc2cc3c(C4CCN(S(C)(=O)=O)CC4)nccc3cn2)cc1 [Ex 175, N-(4-(methylsulfonyl)phenyl)-5-(1-(methylsulfonyl)piperidin-4-yl)-2,6-naphthyridin-3-amine]","IC50 [1, 5]: > 250 nM"
–,> 250,"CS(=O)(=O)N1CCC(Nc2cc3c(C(=O)N4CCCCC4)nccc3cn2)CC1 [Ex 97, (7-((1-(methylsulfonyl)piperidin-4-yl)amino)-2,6-naphthyridin-1-yl)(piperidin-1-yl)methanone]",–

# Reference: patent US20260325533A1, “CDK INHIBITOR COMPOUNDS” (ALEKSIA THERAPEUTICS, INC., priority 2023, published 2026)
